Tests used:
osteoclast proton pump = conditions: avian osteoclast membrane vesicles, ATP-driven acidification; cited from earlier work
osteoclast cultures = conditions: cited from earlier work
[1] = molecular target: bafilomycin-sensitive ATPase in chicken osteoclasts; assay: Inhibition of bafilomycin-sensitive ATPase activity in purified osteoclast membrane vesicles (Pi release); format: biochemical; conditions: chicken osteoclast membranes, read-out: IC50 (μM) APase assay
Protocol: Preparation of crude bone microsomes from calcium-starved egg-laying hens. Vesicles were prepared from medullar bone obtained from tibiae and femurs of egg-laying hens which were calcium-starved for at least 15 days. Briefly, bone fragments were scraped with a 24 scalpel blade, suspended in 40 ml of isolation medium (0.2 M sucrose, 50 mM KCl, 10 mM Hepes, 1 mM EGTA, 2 mM dithiotheitrol, pH 7.4) and filtered through a 100 μm pore size nylon mesh. The whole procedure was performed at 4° C. After homogenisation in a potter (20 strokes) in 40 ml of isolation medium an initial centrifugation (6,500×gmax ×20 min) was performed to remove mitochondria and lysosomes. […] The protein content was determined using a Biorad colourimetric kit according to Bradford [M. Bradford, Ana. […]
Inhibition of bafilomycin-sensitive ATPase activity was assessed in purified membrane vesicles by measuring the release of inorganic phosphate (Pi) during 30 min of incubation at 37° C. in a 96-well plate either in the presence or in the absence of bafilomycin Al. […] Absorbance at 650 nm was measured after 2 min using a microplate reader. Results are expressed as μmol (Pi)×mg protein^-1 ×hour^-1 and, for each experiment, represent the mean±sem of triplicates.

Row | SMILES | inhibition of proton transport (osteoclast proton pump) | inhibition of bone resorption (osteoclast cultures) | IC50 [1]
1 | CCN1C(=O)C=CC1=O [N-ethylmaleimide (NEM), N-ethylmaleimide] | inhibited | – | –
2 | CO/C1=C\C(C)=C\[C@@H](C)[C@@H](O)[C@@H](C)C/C(C)=C/C=C/[C@H](OC)[C@@H]([C@@H](C)[C@@H](O)[C@H](C)[C@@]2(O)C[C@@H](O)[C@H](C)[C@@H](C(C)C)O2)OC1=O [bafilomycin A1] | inhibited | able to inhibit bone resorption | –
3 | Cc1nc2c(OCc3ccccc3)cccn2c1CC#N [SCH 28080] | not inhibited | – | –
4 | [Na+].[Na+].[Na+].[O]=[V]([O-])([O-])[O-] [sodium orthovanadate] | not inhibited | – | –
5 | C[C@@H]1O[C@@H](O[C@H]2C[C@@H](O)[C@]3(CO)[C@H]4[C@H](O)C[C@]5(C)[C@@H](C6=CC(=O)OC6)CC[C@]5(O)[C@@H]4CC[C@]3(O)C2)[C@H](O)[C@H](O)[C@H]1O [ouabain] | not inhibited | – | –
6 | O=C1OCCO/C1=C\C=C\c1cc2cc(Cl)c(Cl)cc2[nH]1 [Example 1, (2Z,4E) 3-[3-(5,6-Dichloro-1H-indol-2-yl)-2-propenyliden]-1,4-dioxan-2-one] | – | – | 8.5 µM
7 | COc1ccc2[nH]c([S+]([O-])Cc3ncc(C)c(OC)c3C)nc2c1 (centres unmarked) [omeprazole] | not inhibited | – | –

From US5985905A, “Indole derivatives for the treatment of osteoporosis” (priority 1996, dated 1999)
